Results taken from patent US6380185B1, “N-substituted benzoyl indoles as estrogenic agents” (American Home Products Corporation, priority 1999, dated 2002).

Experiments:
estrogen receptor = target: T1, estrogen receptor (Homo sapiens, UniProt P03372); test: Transfection Assay; type: cell-based
T1 sequence (P03372 1-595): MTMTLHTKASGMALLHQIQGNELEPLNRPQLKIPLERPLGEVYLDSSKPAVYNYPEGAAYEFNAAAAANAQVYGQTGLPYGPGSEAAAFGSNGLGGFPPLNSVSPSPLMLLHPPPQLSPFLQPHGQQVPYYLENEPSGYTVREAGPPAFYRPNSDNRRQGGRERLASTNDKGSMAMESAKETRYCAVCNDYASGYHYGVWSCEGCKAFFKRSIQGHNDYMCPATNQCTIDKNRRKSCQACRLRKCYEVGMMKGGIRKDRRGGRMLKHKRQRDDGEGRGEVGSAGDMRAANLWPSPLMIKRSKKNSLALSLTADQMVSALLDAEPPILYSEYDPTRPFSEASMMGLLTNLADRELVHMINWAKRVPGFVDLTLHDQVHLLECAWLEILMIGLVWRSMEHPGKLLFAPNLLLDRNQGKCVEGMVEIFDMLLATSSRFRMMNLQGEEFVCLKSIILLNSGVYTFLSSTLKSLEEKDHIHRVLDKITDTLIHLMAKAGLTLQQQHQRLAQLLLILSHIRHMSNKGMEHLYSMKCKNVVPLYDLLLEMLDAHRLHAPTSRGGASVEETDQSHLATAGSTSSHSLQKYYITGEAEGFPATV

estrogen receptor (ER) = target: T2, estrogen receptor (ER) (Homo sapiens, UniProt P03372); test: Estrogen Receptor Binding/Competition Assay ([3H]17β-estradiol displacement)
T2 construct: expressed in transfected cells; host or cells: CHO cells (ribosome-free cytosol)
T2 sequence (P03372 1-595): T1 sequence (P03372 1-595)

Row | Transfection Assay % Control (estrogen receptor; Concentration 1 × 10^−6 M + 1 nM estradiol) | Transfection Assay % Control (estrogen receptor; Concentration 1 × 10^−6 M, compound alone) | IC50 (estrogen receptor (ER)) | melting point | SMILES
1 | 13% | 0% | 200 nM | 127 to 130 °C | Cc1c(-c2ccc(O)cc2)n(C(=O)c2ccc(OCCN3CCCCC3)cc2)c2ccc(O)cc12 [Example No. 2, [5-Hydroxy-2-(4-hydroxy-phenyl)-3-methyl-indol-1-yl][4-(2-piperidin-1-yl-ethoxy)-phenyl]-methanone]
2 | – | – | – | 48 to 51 °C | Cc1c(-c2ccc(OCc3ccccc3)cc2)n(C(=O)c2ccc(OCCN3CCCCC3)cc2)c2ccc(OCc3ccccc3)cc12 [compound 1, [5-Benzyloxy-2-(4-benzyloxy-phenyl)-3-methyl-indol-1-yl]-[4-(2-piperidin-1-yl-ethoxy)-phenyl]-methanone]
